Where a name gives a salt, the structure may show the parent alone.

From patent publication US8017612B2, “Piperazine compound and use thereof as a HCV polymerase inhibitor” (priority 2006, dated 2011) come the findings set out here.

The target of experiment [1] is T1, HCV polymerase (NS5B) type 1b (Hepatitis C virus genotype 1b, UniProt P26663).
T1 construct: a region encoding NS5B (J Virol 1991 March, 65(3), 1105-13, 544 amino acids after deletion of 47 amino acids on the C-terminal); 6xHis (C); made in house; host or cells: Escherichia coli
The experiment is described as follows: Assay of enzyme (HCV polymerase) inhibitory activity, type 1b enzyme. Type of experiment: biochemical, HCV BK strain (type 1b). Summed up:
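Polymerase activity was followed as radiolabelled UTP incorporation by E. coli-expressed, His-tagged NS5B of HCV type 1b lacking its last 47 residues. Conditions: 2 μM UTP, 50 μM other NTPs, Mg2+ buffer at pH 7.5, 25 °C for 60 min. Inhibition relative to compound-free reactions gave IC50.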

The target in experiment [2] is T2, HCV polymerase (NS5B) type 1a (Hepatitis C virus genotype 1a, UniProt P26664).
T2 construct: made in house; host or cells: Escherichia coli (by the 'similar method' of the 1b enzyme)
The experiment is described as follows: Assay of enzyme (HCV polymerase) inhibitory activity, type 1a enzyme. Type of experiment: biochemical, HCV type 1a (cloned from the blood of patients). A digest of the protocol: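 IC50 values derive from radioactivity of newly synthesized RNA with versus without test compound. The enzyme was C-terminally truncated type 1a NS5B, 1.5 μg/ml, run 60 min at 25° C with 3H-UTP-labelled nucleotides.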

Where [3] appears, read: HCV polymerase inhibitory activity (IC50), 1b, type 1b enzyme 0.5 μg/ml, 25° C., 60 min.
The mark [4] stands for this setting: HCV polymerase inhibitory activity (IC50), 1a, type 1a enzyme 1.5 μg/ml, 25° C., 60 min.
Setting [5] is: HCV polymerase inhibitory activity IC50, 1b, type 1b enzyme.
The mark [6] stands for this setting: HCV polymerase inhibitory activity IC50, 1a, type 1a enzyme.

In general, IC50 refers to the concentration that inhibits the measured activity by half. A low value points to greater potency in that assay. Consider `CCCc1ccc(CNC(=O)[C@H]2CN(C(=O)Cc3ccncc3)CCN2S(=O)(=O)c2ccc(OC(F)(F)F)cc2)cc1` [Example 411, (R)-4-(2-pyridin-4-yl-acetyl)-1-(4-trifluoromethoxy-benzenesulfonyl)-piperazine-2-carboxylic acid 4-propyl-benzylamide], for which the IC50 in experiment [1] (setting [3]) and in experiment [2] (setting [4]) was below 100 nM throughout.

For `CC(C)c1ccc(CNC(=O)[C@H]2CN(C(=O)Nc3ccccc3Cl)CCN2S(=O)(=O)c2ccc(C(F)(F)F)cc2)cc1` [Example 269, (R)-4-(4-trifluoromethyl-benzenesulfonyl)-piperazine-1,3-dicarboxylic acid 1-[(2-chloro-phenyl)-amide] 3-(4-isopropyl-benzylamide)], the IC50 in experiment [1] (setting [3]) and in experiment [2] (setting [4]) was above 1000 nM each time.

For the molecule `CCC(F)(F)c1ccc(CNC(=O)[C@H]2CN(c3nc4nsnc4nc3O)CCN2S(=O)(=O)c2ccc(OC(F)(F)F)cc2)cc1` [Example 647, (R)-4-(6-hydroxy-[1,2,5]thiadiazolo[3,4-b]pyrazin-5-yl)-1-(4-trifluoromethoxy-benzenesulfonyl)-piperazine-2-carboxylic acid 4-(1,1-difluoro-propyl)-benzylamide], the IC50 in experiment [1] (setting [3]) is 100 to 1000 nM; in experiment [2] (setting [4]), above 1000 nM.

With `CC(=O)N1CCN(S(=O)(=O)c2ccc3ccccc3c2)C(C(=O)NCc2ccc(C(F)(F)F)cc2)C1` (stereo not drawn) [Example 164, 4-acetyl-1-(naphthalene-2-sulfonyl)-piperazine-2-carboxylic acid 4-trifluoromethyl-benzylamide], the IC50 in experiment [1] (setting [3]) and in experiment [2] (setting [4]) was above 1000 nM each time.

Turning to `CCC(F)(F)c1ccc(CNC(=O)[C@H]2CN(c3cnc4cncnc4n3)CCN2S(=O)(=O)c2cc3ccccc3s2)cc1` [Example 738, (R)-1-(benzo[b]thiophene-2-sulfonyl)-4-pteridin-7-yl-piperazine-2-carboxylic acid 4-(1,1-difluoro-propyl)-benzylamide], the IC50 in experiment [1] (setting [5]) and in experiment [2] (setting [6]) was below 100 nM in each case.

As for `COC(=O)C(C)(C)c1ccc(CNC(=O)[C@H]2CN(C(C)=O)CCN2S(=O)(=O)c2ccc(C(C)C)cc2)cc1` [Example 223, 2-[4-({[(R)-4-acetyl-1-(4-isopropyl-benzenesulfonyl)-piperazine-2-carbonyl]-amino}-methyl)-phenyl]-2-methyl-propionic acid methyl ester], the IC50 in experiment [1] (setting [3]) and in experiment [2] (setting [4]) was 100 to 1000 nM in each case.

`N#Cc1ncc2sc(N3CCN(S(=O)(=O)c4ccc(OC(F)(F)F)cc4)[C@@H](C(=O)NCc4ccc(OC(F)(F)F)cc4)C3)nc2n1` [Example 964, (R)-4-(5-cyano-thiazolo[4,5-d]pyrimidin-2-yl)-1-(4-trifluoromethoxy-benzenesulfonyl)-piperazine-2-carboxylic acid 4-trifluoromethoxy-benzylamide]: the IC50 in experiment [1] (setting [5]) and in experiment [2] (setting [6]) was below 100 nM in each case.

On to `CCC(F)(F)c1ccc(CNC(=O)[C@H]2CN(C(=O)Nc3cncs3)CCN2S(=O)(=O)c2ccc(OC(F)(F)F)cc2)cc1` [Example 607, (R)-4-(4-trifluoromethoxy-benzenesulfonyl)-piperazine-1,3-dicarboxylic acid 3-[4-(1,1-difluoro-propyl)-benzylamide] 1-thiazol-5-ylamide], for which the IC50 in experiment [1] (setting [3]) and in experiment [2] (setting [4]) was 100 to 1000 nM in each case.

For the molecule `CC(C)c1ccc(CNC(=O)[C@H]2CN(C(=O)Nc3cccc(OCC(=O)O)c3)CCN2S(=O)(=O)c2ccc(C(F)(F)F)cc2)cc1` [Example 260, (3-{[(R)-3-(4-isopropyl-benzylcarbamoyl)-4-(4-trifluoromethyl-benzenesulfonyl)-piperazine-1-carbonyl]-amino}-phenoxy)-acetic acid], the 50% inhibitory concentration (IC50) in experiment [1] (setting [3]) and in experiment [2] (setting [4]) was 100 to 1000 nM throughout.

For the molecule `Cc1nc(N)c2sc(N3CCN(S(=O)(=O)c4ccc(OC(F)(F)F)cc4)[C@@H](C(=O)NCc4ccc(OC(F)(F)F)cc4)C3)nc2n1` [Example 982, (R)-4-(7-amino-5-methyl-thiazolo[4,5-d]pyrimidin-2-yl)-1-(4-trifluoromethoxy-benzenesulfonyl)-piperazine-2-carboxylic acid 4-trifluoromethoxy-benzylamide], the IC50 in experiment [1] (setting [5]) and in experiment [2] (setting [6]) was below 100 nM in each case.

For the molecule `CC(C)c1ncc2sc(N3CCN(S(=O)(=O)c4ccc(OC(F)(F)F)cc4)[C@@H](C(=O)NCc4ccc(OC(F)(F)F)cc4)C3)nc2n1` [Example 984, (R)-4-(5-isopropyl-thiazolo[4,5-d]pyrimidin-2-yl)-1-(4-trifluoromethoxy-benzenesulfonyl)-piperazine-2-carboxylic acid 4-trifluoromethoxy-benzylamide], the IC50 in experiment [1] (setting [5]) and in experiment [2] (setting [6]) was below 100 nM in each case.

`COC(F)(F)c1ccc(CNC(=O)[C@H]2CN(c3nc4cn[nH]c(=O)c4s3)CCN2S(=O)(=O)c2ccc(OC(F)(F)F)cc2)cc1` [Example 938, (R)-4-(7-oxo-6,7-dihydro-thiazolo[4,5-d]pyridazin-2-yl)-1-(4-trifluoromethoxy-benzenesulfonyl)-piperazine-2-carboxylic acid 4-(difluoro-methoxy-methyl)-benzylamide]: the results for the IC50 in experiment [1] (setting [5]) and in experiment [2] (setting [6]) were below 100 nM and 100 to 1000 nM, respectively.

Take `CCC(F)(F)c1ccc(CNC(=O)[C@H]2CN(C(=O)Nc3nc[nH]n3)CCN2S(=O)(=O)c2ccc(OC(F)(F)F)cc2)cc1` [Example 565, (R)-4-(4-trifluoromethoxy-benzenesulfonyl)-piperazine-1,3-dicarboxylic acid 3-[4-(1,1-difluoro-propyl)-benzylamide] 1-[(1H-[1,2,4]triazol-3-yl)-amide]]: the IC50 in experiment [1] (setting [3]) was below 100 nM; in experiment [2] (setting [4]) it was 100 to 1000 nM.

Consider `COc1nncc2nc(N3CCN(S(=O)(=O)c4ccc(OC(F)(F)F)cc4)[C@@H](C(=O)NCc4ccc(OC(F)(F)F)cc4)C3)sc12` [Example 944, (R)-4-(7-methoxy-thiazolo[4,5-d]pyridazin-2-yl)-1-(4-trifluoromethoxy-benzenesulfonyl)-piperazine-2-carboxylic acid 4-trifluoromethoxy-benzylamide], for which the IC50 in experiment [1] (setting [5]) and in experiment [2] (setting [6]) was below 100 nM each time.

`CN(C)C(=O)c1nncc2sc(N3CCN(S(=O)(=O)c4ccc(OC(F)(F)F)cc4)[C@@H](C(=O)NCc4ccc(OC(F)(F)F)cc4)C3)nc12` [Example 930, 2-[(R)-4-(4-trifluoromethoxy-benzenesulfonyl)-3-(4-trifluoromethoxy-benzylcarbamoyl)-piperazin-1-yl]-thiazolo[4,5-d]pyridazine-4-carboxylic acid dimethylamide]: the IC50 in experiment [1] (setting [5]) and in experiment [2] (setting [6]) was below 100 nM in each case.

Regarding `CC(C)c1ccc(CNC(=O)[C@H]2CN(c3cnc(N)cn3)CCN2S(=O)(=O)c2ccc(C(F)(F)F)cc2)cc1` [Example 471, (R)-5′-amino-4-(4-trifluoromethyl-benzenesulfonyl)-3,4,5,6-tetrahydro-2H-[1,2′]bipyrazinyl-3-carboxylic acid 4-isopropyl-benzylamide], the IC50 in experiment [1] (setting [3]) was below 100 nM; in experiment [2] (setting [4]), 100 to 1000 nM.

For `Cc1nn(C)c2nc(N3CCN(S(=O)(=O)c4ccc(OC(F)(F)F)cc4)[C@@H](C(=O)NCc4ccc(OC(F)(F)F)cc4)C3)sc12` [Example 980, (R)-4-(1,3-dimethyl-1H-pyrazolo[3,4-d]thiazol-5-yl)-1-(4-trifluoromethoxy-benzenesulfonyl)-piperazine-2-carboxylic acid 4-trifluoromethoxy-benzylamide], the half-maximal inhibitory concentration (IC50) in experiment [1] (setting [5]) and in experiment [2] (setting [6]) was below 100 nM each time.

Regarding `CCCc1ccc(CNC(=O)[C@H]2CN(c3nc(C(=O)O)c(COC)s3)CCN2S(=O)(=O)c2ccc(OC(F)(F)F)cc2)cc1` [Example 536, 5-methoxymethyl-2-[(R)-3-(4-propyl-benzylcarbamoyl)-4-(4-trifluoromethoxy-benzenesulfonyl)-piperazin-1-yl]-thiazole-4-carboxylic acid], the IC50 in experiment [1] (setting [3]) was below 100 nM; in experiment [2] (setting [4]) it was 100 to 1000 nM.

For `COC(=O)COc1ccc(S(=O)(=O)N2CCN(C(C)=O)C[C@@H]2C(=O)NCc2ccc(C(C)C)cc2)cc1` [Example 238, {4-[(R)-4-acetyl-2-(4-isopropyl-benzylcarbamoyl)-piperazine-1-sulfonyl]-phenoxy}-acetic acid methyl ester], the IC50 is 100 to 1000 nM in experiment [1] (setting [3]) and above 1000 nM in experiment [2] (setting [4]).

On to `CC(C)c1ccc(S(=O)(=O)N2CCNCC2C(=O)NCc2ccc(C(F)(F)F)cc2)cc1` (stereo not drawn) [Example 15, 1-(4-isopropyl-benzenesulfonyl)-piperazine-2-carboxylic acid 4-trifluoromethyl-benzylamide hydrochloride], for which the IC50 in experiment [1] (setting [3]) and in experiment [2] (setting [4]) was above 1000 nM throughout.

On to `Cc1nc(N2CCN(S(=O)(=O)c3ccc(OC(F)(F)F)cc3)[C@@H](C(=O)NCc3ccc(N(C)C)nc3)C2)sc1C(=O)O` [Example 387, 2-[(R)-3-[(6-dimethylamino-pyridin-3-ylmethyl)-carbamoyl]-4-(4-trifluoromethoxy-benzenesulfonyl)-piperazin-1-yl]-4-methyl-thiazole-5-carboxylic acid], for which the IC50 in experiment [1] (setting [3]) and in experiment [2] (setting [4]) was below 100 nM each time.
